From ChEMBL document CHEMBL1201862, “PubChem BioAssay data set” (2004)
Active and inactive are the calls of the source.

Key:
[1] = target: T1, Tyrosine-protein phosphatase non-receptor type 22 (Homo sapiens, UniProt Q9Y2R2); test: lymphoid phosphatase LYP inhibitors – biochemical, selectivity assay for STEP inhibitor project, dose response (AID 624241); type: functional
T1 sequence (Q9Y2R2 whole entry): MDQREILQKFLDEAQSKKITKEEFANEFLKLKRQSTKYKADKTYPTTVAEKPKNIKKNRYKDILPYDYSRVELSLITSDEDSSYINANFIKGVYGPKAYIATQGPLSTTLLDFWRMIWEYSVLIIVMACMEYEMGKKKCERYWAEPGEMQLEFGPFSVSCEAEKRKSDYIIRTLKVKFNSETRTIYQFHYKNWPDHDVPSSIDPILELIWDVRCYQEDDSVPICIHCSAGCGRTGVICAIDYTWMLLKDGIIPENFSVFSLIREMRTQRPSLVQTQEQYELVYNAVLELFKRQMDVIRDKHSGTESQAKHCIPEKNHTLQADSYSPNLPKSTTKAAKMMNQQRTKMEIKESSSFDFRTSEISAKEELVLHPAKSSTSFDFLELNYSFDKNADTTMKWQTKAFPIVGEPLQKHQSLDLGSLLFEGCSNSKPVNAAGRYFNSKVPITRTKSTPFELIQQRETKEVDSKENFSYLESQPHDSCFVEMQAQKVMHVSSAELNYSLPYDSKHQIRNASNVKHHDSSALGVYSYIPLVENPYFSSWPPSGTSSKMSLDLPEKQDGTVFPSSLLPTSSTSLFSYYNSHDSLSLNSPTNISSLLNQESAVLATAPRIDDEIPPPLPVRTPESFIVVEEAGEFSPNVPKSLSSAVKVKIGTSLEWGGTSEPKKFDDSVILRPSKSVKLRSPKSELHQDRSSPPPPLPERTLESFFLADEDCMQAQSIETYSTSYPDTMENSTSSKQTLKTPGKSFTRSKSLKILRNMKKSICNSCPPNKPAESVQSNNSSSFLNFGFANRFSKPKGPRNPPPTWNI

[2] = target: Dual specificity protein phosphatase 3 (Homo sapiens, UniProt P51452); test: VHR phosphatase inhibition, dose response, selectivity assay for STEP inhibitor project, biochemical (AID 602374); type: functional; settings: read-out: IC50_Mean
Dual specificity protein phosphatase 3, sequence (P51452 whole entry): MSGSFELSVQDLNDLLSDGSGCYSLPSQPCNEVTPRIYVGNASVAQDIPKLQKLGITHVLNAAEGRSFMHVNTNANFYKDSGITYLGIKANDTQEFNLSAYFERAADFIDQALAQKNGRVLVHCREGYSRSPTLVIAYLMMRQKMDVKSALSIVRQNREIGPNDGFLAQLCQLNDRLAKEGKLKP

[3] = target: Eukaryotic translation initiation factor 4H (Homo sapiens, UniProt Q15056); test: eIF4H binding inhibition – biochemical, uHTS, fluorescence polarization, translation initiation inhibitor project, primary screen (AID 2012)
[4] = target: T2, Small ubiquitin-related modifier 2 (Homo sapiens, UniProt P61956); test: SUMO2 binding disruption by SUMO1 hits – biochemical, FRET, human SUMO2, uHTS hits, selectivity assay for SUMO1 interaction inhibitor project, dose response (AID 624384); type: functional; settings: read-out: IC50_Mean
T2 sequence (P61956 whole entry): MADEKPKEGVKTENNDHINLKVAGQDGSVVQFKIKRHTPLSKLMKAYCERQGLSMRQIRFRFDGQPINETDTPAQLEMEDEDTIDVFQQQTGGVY

[5] = target: Polyadenylate-binding protein 1 (Homo sapiens, UniProt P11940); test: blockers of PABP interaction with poly(A) – biochemical, fluorescence polarization, […] (AID 2014)
Polyadenylate-binding protein 1, sequence (P11940 whole entry): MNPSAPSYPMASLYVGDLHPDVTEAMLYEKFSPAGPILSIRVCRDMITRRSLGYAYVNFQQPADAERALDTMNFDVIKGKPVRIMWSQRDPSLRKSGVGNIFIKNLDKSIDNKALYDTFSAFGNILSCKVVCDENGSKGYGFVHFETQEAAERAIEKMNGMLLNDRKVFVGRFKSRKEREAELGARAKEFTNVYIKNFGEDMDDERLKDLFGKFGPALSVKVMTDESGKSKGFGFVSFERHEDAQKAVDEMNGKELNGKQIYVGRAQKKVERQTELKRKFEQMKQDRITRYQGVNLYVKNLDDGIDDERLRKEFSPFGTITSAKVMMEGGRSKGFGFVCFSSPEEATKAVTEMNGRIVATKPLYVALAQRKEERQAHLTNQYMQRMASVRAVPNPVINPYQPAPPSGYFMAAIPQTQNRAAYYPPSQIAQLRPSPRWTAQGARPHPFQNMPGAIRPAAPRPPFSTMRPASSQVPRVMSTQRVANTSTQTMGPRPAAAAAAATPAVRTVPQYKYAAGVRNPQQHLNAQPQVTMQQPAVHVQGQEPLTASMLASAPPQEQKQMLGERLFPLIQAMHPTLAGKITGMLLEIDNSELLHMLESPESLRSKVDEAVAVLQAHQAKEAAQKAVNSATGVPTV

[6] = target: T3, Tyrosine-protein phosphatase non-receptor type 11 (Homo sapiens, UniProt Q06124); test: PTPN11 enzyme inhibitors – biochemical, selectivity assay for STEP inhibitor project, dose response (AID 602367); type: functional; settings: read-out: IC50_Mean
T3 sequence (Q06124 whole entry): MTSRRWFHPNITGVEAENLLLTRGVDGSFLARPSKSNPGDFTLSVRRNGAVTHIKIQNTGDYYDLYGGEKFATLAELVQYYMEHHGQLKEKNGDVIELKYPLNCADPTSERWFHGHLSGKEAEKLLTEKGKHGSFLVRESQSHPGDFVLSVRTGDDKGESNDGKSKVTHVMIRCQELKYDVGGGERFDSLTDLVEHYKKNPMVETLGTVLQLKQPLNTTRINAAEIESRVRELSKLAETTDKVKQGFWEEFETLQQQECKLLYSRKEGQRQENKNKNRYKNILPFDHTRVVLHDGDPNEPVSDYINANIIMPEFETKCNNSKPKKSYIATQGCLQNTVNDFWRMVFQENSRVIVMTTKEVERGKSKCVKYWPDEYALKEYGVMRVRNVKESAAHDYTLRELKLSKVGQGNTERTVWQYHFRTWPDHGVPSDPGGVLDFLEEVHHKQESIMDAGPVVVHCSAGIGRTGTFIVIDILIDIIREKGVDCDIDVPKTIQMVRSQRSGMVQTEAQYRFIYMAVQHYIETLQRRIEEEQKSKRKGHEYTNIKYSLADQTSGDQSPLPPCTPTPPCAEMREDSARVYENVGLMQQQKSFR

[7] = target: T2, Small ubiquitin-related modifier 2; test: disruption of SUMO2 interaction with SIM peptide – biochemical, fluorescence polarization, uHTS hits, selectivity assay for SUMO1 interaction inhibitor project, dose response (AID 624385); type: functional; settings: read-out: IC50_Mean
[8] = target: T4, Small ubiquitin-related modifier 1 (Homo sapiens, UniProt P63165); test: SUMO1 protein interaction blockers, potency – biochemical, fluorescence polarization, uHTS hits, dose response (AID 624382); type: functional; settings: read-out: IC50_Mean
T4 sequence (P63165 whole entry): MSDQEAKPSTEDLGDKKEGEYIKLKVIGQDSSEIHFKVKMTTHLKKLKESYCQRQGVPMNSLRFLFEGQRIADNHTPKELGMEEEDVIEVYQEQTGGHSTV

[9] = target: T4, Small ubiquitin-related modifier 1; test: SUMO1 protein-protein binding blockers, potency – biochemical, FRET, dose response (AID 624383); type: functional; settings: read-out: IC50_Mean
[10] = target: T5, Tyrosine-protein phosphatase non-receptor type 5 (Homo sapiens, UniProt P54829); test: PTPN5 enzyme inhibition – biochemical, fluorescence intensity, uHTS hits, confirmation (AID 602372); type: functional; settings: read-out: IC50_Mean
T5 sequence (P54829 whole entry): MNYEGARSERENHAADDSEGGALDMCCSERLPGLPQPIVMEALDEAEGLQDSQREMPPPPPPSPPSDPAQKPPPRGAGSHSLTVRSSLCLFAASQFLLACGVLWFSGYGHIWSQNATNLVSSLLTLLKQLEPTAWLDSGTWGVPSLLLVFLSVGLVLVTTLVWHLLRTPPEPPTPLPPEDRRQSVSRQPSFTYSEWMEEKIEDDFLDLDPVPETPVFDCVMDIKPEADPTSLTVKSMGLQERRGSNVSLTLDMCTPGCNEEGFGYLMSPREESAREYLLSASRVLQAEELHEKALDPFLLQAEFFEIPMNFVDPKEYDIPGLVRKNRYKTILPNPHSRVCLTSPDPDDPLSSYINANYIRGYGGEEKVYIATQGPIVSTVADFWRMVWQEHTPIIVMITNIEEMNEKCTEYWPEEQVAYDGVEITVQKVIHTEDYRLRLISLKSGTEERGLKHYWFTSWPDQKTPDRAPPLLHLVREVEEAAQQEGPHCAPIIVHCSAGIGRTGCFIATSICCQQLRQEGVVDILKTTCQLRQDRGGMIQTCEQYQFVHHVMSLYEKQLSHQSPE

[11] = target: T6, Carboxy-terminal domain RNA polymerase II polypeptide A small phosphatase 1 (Homo sapiens, UniProt Q9GZU7); test: CTDSP1 inhibitors, concentration-response, biochemical, absorbance readout, ultra-high-throughput screen actives (AID 540297); type: functional
T6 sequence (Q9GZU7 whole entry): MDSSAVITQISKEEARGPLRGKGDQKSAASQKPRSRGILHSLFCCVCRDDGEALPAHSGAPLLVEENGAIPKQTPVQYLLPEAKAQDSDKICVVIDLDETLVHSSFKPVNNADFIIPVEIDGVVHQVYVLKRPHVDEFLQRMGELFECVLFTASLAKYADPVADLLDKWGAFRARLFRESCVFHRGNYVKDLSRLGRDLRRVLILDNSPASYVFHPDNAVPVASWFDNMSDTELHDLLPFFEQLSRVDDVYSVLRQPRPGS

[12] = target: ADP-ribosylation factor GTPase-activating protein 1 (Rattus norvegicus, UniProt Q62848); test: Fluorescence polarization-based biochemical high throughput dose response screening assay to identify inhibitors of ADP-ribosylation factor GTPase activating protein 1 (ARFGAP1).; type: functional
ADP-ribosylation factor GTPase-activating protein 1, sequence (Q62848 whole entry): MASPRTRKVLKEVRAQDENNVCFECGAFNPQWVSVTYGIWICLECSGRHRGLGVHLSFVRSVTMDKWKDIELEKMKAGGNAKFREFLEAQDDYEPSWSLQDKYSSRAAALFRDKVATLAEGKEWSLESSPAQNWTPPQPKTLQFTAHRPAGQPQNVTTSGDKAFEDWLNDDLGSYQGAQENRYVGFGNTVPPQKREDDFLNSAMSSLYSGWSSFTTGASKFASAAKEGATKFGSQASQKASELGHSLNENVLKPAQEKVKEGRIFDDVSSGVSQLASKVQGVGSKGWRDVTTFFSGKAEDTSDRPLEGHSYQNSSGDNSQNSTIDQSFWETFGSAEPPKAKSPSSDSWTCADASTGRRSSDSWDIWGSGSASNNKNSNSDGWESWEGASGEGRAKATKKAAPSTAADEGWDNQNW

[13] = cytotoxicity toward MDA-MB-231 breast cancer cells – cell-based, CellTiter-Glo luminescence, cherry-pick, cytotoxicity control for RAD54 inhibitor project, dose response (AID 651692); type: functional
[14] = target: T7, DNA repair and recombination protein RAD54-like (Homo sapiens, UniProt Q92698); test: RAD54 Holliday junction migration blockers – biochemical, fluorescence, cherry-picked samples, dose series, confirmation (AID 651657); type: functional
T7 sequence (Q92698 whole entry): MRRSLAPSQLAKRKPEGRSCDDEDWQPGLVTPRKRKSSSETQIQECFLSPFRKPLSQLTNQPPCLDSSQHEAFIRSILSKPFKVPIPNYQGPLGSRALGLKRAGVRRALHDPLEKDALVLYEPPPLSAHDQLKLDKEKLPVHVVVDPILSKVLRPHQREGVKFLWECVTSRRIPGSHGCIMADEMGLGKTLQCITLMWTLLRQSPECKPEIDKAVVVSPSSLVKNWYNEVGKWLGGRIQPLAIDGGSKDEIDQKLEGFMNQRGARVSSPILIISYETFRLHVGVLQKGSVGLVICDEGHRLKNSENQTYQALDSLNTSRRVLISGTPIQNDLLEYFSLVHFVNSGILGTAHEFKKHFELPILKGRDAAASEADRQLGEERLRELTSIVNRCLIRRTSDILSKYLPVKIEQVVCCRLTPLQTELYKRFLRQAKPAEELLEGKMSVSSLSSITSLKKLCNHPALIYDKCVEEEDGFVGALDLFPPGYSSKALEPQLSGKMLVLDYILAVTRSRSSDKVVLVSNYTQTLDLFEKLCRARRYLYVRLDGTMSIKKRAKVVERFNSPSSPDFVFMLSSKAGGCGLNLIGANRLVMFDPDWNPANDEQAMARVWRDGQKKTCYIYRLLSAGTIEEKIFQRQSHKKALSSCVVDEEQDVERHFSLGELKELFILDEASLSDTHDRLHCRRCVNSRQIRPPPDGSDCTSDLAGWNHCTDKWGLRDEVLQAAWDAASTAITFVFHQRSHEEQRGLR

[15] = target: T8, DNA repair protein RAD52 homolog (Homo sapiens, UniProt P43351); type: functional, biochemical
T8 sequence (P43351 whole entry): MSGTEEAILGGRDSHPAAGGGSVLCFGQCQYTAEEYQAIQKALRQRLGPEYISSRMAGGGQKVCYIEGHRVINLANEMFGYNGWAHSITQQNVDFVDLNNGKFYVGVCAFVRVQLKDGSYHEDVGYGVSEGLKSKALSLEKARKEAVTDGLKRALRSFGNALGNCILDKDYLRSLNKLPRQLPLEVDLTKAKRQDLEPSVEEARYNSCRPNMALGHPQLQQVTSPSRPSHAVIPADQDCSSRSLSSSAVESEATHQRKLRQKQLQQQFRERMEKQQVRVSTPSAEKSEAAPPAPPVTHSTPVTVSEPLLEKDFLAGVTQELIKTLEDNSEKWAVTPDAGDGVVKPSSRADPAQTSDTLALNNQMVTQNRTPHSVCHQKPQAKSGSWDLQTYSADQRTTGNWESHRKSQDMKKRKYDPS

Genome polyprotein = Genome polyprotein (dengue virus type 2, UniProt P29990); test: flavivirus cap methylation enzyme inhibition – biochemical, confirmation dose response, primary screen (AID 588689); type: functional
Genome polyprotein, sequence (P29990 2492-3391 limits assumed): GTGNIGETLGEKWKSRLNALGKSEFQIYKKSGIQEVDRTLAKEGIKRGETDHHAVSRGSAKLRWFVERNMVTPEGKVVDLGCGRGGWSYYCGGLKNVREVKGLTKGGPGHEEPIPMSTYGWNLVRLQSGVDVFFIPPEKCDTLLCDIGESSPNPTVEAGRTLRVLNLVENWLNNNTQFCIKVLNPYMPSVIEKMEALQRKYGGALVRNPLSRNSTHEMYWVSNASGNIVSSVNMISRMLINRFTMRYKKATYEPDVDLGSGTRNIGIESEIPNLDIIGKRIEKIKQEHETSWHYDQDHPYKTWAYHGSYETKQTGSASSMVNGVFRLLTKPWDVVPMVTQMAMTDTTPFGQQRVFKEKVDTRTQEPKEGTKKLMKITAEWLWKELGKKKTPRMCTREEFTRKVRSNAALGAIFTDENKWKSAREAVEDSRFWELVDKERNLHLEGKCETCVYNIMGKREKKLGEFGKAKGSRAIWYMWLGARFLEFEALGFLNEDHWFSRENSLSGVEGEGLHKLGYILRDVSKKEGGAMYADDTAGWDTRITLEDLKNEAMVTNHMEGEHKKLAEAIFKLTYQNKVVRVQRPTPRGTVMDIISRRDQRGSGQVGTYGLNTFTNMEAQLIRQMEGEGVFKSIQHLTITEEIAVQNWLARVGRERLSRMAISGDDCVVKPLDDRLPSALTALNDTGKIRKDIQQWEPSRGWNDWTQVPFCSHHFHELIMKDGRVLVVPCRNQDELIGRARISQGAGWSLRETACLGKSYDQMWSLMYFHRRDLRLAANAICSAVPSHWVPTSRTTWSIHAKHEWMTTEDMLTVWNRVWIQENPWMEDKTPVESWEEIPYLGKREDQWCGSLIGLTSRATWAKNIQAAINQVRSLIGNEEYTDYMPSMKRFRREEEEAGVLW

Beta-lactamase [16] = target: T9, Beta-lactamase (Pseudomonas aeruginosa, UniProt Q79MP6); test: […] counterscreen for selective VIM-2 inhibitors: dose response biochemical high throughput screening assay to identify inhibitors of IMP-1 metallo-beta-lactamase.
T9 sequence (Q79MP6 whole entry): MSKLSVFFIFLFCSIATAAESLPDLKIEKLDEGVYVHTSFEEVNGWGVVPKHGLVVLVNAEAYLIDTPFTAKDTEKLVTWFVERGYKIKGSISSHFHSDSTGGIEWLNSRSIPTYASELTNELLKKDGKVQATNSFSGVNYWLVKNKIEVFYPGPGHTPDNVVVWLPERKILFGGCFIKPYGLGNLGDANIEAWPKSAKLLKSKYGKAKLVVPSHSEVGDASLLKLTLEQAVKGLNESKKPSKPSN

Beta Lactamase [17] = target: T10, Beta Lactamase (Pseudomonas aeruginosa, UniProt Q932Y6); test: VIM-2 CCF2 hydrolysis inhibition, assay artifact filter – biochemical, FRET readout, CCF2 substrate, artefact control for selective VIM-2 inhibitor project, dose response (AID 1926)
T10 sequence (Q932Y6 whole entry): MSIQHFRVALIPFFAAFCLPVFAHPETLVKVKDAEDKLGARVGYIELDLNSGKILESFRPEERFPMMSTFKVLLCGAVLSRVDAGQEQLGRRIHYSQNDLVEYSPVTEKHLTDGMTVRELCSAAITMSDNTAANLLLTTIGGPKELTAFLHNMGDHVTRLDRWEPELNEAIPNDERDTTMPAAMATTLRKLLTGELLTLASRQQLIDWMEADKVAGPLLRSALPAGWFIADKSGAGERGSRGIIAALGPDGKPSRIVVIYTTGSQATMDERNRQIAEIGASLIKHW

Beta Lactamase [18] = target: T10, Beta Lactamase; test: concentration-dependent VIM-2 enzyme inhibition – biochemical, epi-absorbance readout, selective inhibitors, dose response (AID 1919)
Beta-lactamase [19] = target: Beta-lactamase (Salmonella choleraesuis (strain SC-B67), UniProt Q5J463); test: Epi-absorbance-based counterscreen for selective VIM-2 inhibitors: dose response biochemical high throughput screening assay to identify inhibitors of TEM-1 serine-beta-lactamase.
Beta-lactamase (Salmonella choleraesuis (strain SC-B67), UniProt Q5J463), sequence (Q5J463 whole entry): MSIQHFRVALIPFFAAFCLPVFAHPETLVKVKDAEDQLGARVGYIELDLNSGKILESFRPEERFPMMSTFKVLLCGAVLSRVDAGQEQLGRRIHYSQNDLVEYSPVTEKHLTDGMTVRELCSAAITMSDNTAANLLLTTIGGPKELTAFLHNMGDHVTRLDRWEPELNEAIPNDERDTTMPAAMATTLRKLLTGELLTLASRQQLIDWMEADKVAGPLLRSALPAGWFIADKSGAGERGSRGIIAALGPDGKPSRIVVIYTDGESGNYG

Beta-lactamase [20] = target: T9, Beta-lactamase; test: inhibition of IMP-1 beta-lactamase activity – biochemical, epi-absorbance, selectivity assay for VIM-2 inhibitor project, dose response (AID 1920)
[21] = cytotoxicity in HEK293 background cells – cell-based, dry powder, set 2, counter-screen for EBV LMP1 inhibitor project, dose response (AID 624374); type: functional
[22] = target: T11, Sentrin-specific protease 8 (Homo sapiens, UniProt Q96LD8); type: functional
T11 sequence (Q96LD8 whole entry): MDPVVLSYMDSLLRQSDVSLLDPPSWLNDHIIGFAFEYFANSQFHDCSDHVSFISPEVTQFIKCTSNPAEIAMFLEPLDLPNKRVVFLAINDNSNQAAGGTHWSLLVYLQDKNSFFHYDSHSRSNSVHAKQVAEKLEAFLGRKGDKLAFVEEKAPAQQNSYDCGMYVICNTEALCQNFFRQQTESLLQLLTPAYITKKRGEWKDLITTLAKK

[23] = target: T11, Sentrin-specific protease 8; type: functional; remark: listed apart in the source

O=C(Nc1cc([N+](=O)[O-])ccc1O)c1cccc(C(=O)Nc2cc([N+](=O)[O-])ccc2O)c1
IC50 [1]: 8.76 µM (active)
IC50 [2]: 0.509 µM (active)
IC50 [3]: 7.71 µM (active)
IC50 [4]: > 66 µM (inactive)
IC50 [5]: 8.96 µM (active)
IC50 [6]: 0.456 µM (active)
IC50 [7]: 9.33 µM (active)
IC50 [8]: 0.751 µM (active)
IC50 [9]: 53.8 µM (inactive)
IC50 [10]: 1.98 µM (active)
IC50 [11]: 1.03 µM (active)

Cc1ccc(NC(=O)NNC(=O)COc2ccc([N+](=O)[O-])cc2)cc1C
IC50 [12]: 34.5 µM (inactive)

COc1cc(C(=O)NC2CCN(C)CC2)ccc1Nc1ncc2c(n1)N(C1CCCCC1)CCC(=O)N2C
AC50 [13]: 32.5 µM (active)
AC50 [14]: 12 µM (active)
AC50 [15]: 5.86 µM (active)

Oc1c(Br)cc(/C=N/n2c(S)nnc2-c2ccccc2)cc1Br
IC50 (Genome polyprotein): 27.5 µM (active)
IC50 (Beta-lactamase [16]): > 19.9 µM (inactive)
IC50 (Beta Lactamase [17]): 6.1 µM (active)
IC50 (Beta Lactamase [18]): 19.3 µM (inactive)
IC50 (Beta-lactamase [19]): > 59.6 µM (inactive)
IC50 [11]: 1.54 µM (active)
IC50 (Beta-lactamase [20]): > 59.6 µM (inactive)

Cc1noc(C)c1S(=O)(=O)Nc1ccc2c(c1)C(=O)N([C@H](C)CO)C[C@H](C)[C@H](CN(C)Cc1ccc(C(F)(F)F)cc1)OCCCC[C@@H](C)O2
AbsAC35 [21]: 79.09 µM

O=C(c1ccccc1)[C-](C(=O)c1ccc(Cl)cc1)[n+]1ccc2ccccc2c1
IC50 [22]: 9.23 µM (active)
IC50 [23]: > 100 µM (inactive)
